In US9611276B2, “Imidazo bicyclic iminium compounds as antitumor agents” (THE BOARD OF TRUSTEES OF THE LELAND STANFORD JUNIOR …, priority 2012, dated 2017):

Legend:
Assay type in all cases: cell-based
[1] = test system: Hh pathway activity; assay: Shh-LIGHT2 cell assay with ShhN-conditioned medium
Description: Shh-LIGHT2 cells [see Taipale et al. Nature. 2000; 406(6799):1005-9], an NIH-3T3-based cell line containing a stably integrated Gli-responsive firefly luciferase reporter (8XGliBS-FL) and constitutive Renilla luciferase reporter (pRLTK, Promega), were cultured in DMEM (Invitrogen, 11965) containing 10% (v/v) calf serum [the American Type Culture Collection (ATCC), 30-2030], 150 μg/mL zeocin (Invitrogen, R250-01), 400 μg/mL G418 (Invitrogen, 11811), 1 mM sodium pyruvate (Invitrogen, 11360) and 1× PenStrep.
(§1) All test compounds were dissolved in DMSO at 50 mM, serially diluted by 1:3, 1:4 or 1:5 in a 96-well translucent microplate (Greiner bio-one, 650201) and stored at −20° C. These serial dilutions were added to assay media freshly with final DMSO concentration of 0.2% (v/v).
The Shh-LIGHT2 cell assay provides a measure of Hh pathway activity. ShhN-conditioned medium was prepared by culturing a Shh-N-producing HEK 293 cell line [see Chen et al. Proc Natl Acad Sci USA. […] The cells were lysed with passive lysis buffer (50 μL/well), and 10 μL of the obtained lysate were analyzed for firefly and Renilla luciferase activities using Dual-Luciferase Reporter Assay System (Promega, E1960) (50 μL/well of each reagent) on a microplate luminometer (Veritas). Biological triplicates were analyzed for each test compounds.

[2] = test system: Hh pathway-dependent osteoblast differentiation; assay: C3H10T(1/2) cell assay, alkaline phosphatase
Description: C3H10T(1/2) cells were obtained from ATCC and cultured in DMEM (Invitrogen, 11965) containing 10% (v/v) fetal bovine serum (Invitrogen, No. 26140), and 1× PenStrep (Gibco, 15140).
as §1
The C3H10T(1/2) cell assay provides a measure of Hh pathway-dependent osteoblast differentiation. C3H10T(1/2) cells were seeded into a 96-well plate (20,000 cells/well), cultured for 30 hrs and then incubated with test compounds in DMEM (Invitrogen, 11965) containing 0.5% (v/v) fetal bovine serum (Invitrogen, 26140), 1× PenStrep (Gibco, 15140), and 10% (v/v) Shh-N-conditioned medium for 44 hrs. The cells were lysed with lysis buffer (50 μL/well) containing 50 mM Tris-HCl, pH 9.5, 150 mM NaCl, 50 mM MgCl2, and 1% (v/v) Triton X-100. 10 μL of the obtained lysate were analyzed for alkaline phosphatase activities using CDP-Star Substrate (Applied Biosystems, T2146) reagent (50 μL/well) on a microplate luminometer (Veritas). Biological triplicates were analyzed for each test compounds.

[3] = target: Gli2 (Homo sapiens, UniProt P10070); assay: Overexpression of Gli2 in NIH-3T3 cells, firefly luciferase reporter; set-up: expressed in transfected cells; host or cells: NIH-3T3 (mouse fibroblasts)
Gli2, sequence (P10070 whole entry, species assumed): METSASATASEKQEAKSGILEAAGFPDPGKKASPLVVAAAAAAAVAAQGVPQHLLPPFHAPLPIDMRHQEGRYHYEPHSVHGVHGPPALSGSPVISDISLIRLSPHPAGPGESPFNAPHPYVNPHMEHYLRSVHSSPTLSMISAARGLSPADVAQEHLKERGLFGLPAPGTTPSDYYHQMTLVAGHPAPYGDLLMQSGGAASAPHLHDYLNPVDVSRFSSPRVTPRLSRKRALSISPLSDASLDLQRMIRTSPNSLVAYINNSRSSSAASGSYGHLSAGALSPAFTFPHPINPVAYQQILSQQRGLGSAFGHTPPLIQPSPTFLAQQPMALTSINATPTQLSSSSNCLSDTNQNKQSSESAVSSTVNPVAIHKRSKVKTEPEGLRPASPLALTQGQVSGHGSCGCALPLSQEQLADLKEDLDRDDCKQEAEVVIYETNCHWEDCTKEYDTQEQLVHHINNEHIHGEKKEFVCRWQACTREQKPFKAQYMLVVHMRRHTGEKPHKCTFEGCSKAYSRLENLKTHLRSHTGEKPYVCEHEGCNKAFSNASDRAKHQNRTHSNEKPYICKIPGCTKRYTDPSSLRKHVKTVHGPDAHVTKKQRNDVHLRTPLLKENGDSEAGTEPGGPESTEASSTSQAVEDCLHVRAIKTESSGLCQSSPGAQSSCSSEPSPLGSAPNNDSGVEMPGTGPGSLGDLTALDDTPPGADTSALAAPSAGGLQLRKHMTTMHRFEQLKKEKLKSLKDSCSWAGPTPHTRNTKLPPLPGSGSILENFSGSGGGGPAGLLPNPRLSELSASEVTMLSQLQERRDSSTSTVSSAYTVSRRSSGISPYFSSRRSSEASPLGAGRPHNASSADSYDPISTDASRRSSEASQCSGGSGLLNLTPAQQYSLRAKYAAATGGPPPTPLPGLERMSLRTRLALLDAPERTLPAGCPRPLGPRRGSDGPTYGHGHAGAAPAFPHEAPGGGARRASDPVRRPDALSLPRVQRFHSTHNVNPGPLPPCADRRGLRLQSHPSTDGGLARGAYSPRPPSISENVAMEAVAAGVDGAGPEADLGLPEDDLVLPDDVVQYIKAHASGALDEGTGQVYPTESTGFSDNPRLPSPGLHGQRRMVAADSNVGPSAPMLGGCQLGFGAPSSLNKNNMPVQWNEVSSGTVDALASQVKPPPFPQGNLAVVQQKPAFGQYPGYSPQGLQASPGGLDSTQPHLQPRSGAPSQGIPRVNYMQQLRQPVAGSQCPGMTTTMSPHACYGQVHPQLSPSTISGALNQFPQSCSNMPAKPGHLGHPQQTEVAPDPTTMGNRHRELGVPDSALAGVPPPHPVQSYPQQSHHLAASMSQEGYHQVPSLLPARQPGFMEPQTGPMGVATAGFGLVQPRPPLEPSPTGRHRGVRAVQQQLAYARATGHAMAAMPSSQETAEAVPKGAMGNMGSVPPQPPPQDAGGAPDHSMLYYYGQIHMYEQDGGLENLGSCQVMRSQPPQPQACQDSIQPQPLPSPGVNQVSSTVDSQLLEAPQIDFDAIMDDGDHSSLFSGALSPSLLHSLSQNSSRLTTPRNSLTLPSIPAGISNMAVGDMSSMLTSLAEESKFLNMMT
Description: NIH-3T3 cells were obtained from ATCC and cultured in DMEM (Invitrogen, 11965) containing 10% (v/v) calf serum (ATCC, 30-2030), 1 mM sodium pyruvate (Invitrogen, 11360) and 1× PenStrep (Gibco, 15140).
as §1
Overexpression of Gli1 or Gli2 in NIH-3T3 cells provides a measure of Gli1- or Gli1/Gli2-induced pathway activity, respectively. NIH 3T3 cells were seeded into a 24-well plate (35,000 cells/well) and cultured for 30 hrs. […] The cells were lysed with passive lysis buffer (200 μL/well), and 10 μL of the obtained lysate were analyzed for firefly and Renilla luciferase activities using Dual-Luciferase Reporter Assay System (Promega, E1960) (50 μL/well of each reagent) on a microplate luminometer (Veritas). Biological triplicates were analyzed for each test compounds.

[4] = target: T1, Smo (Mus musculus, UniProt P56726); assay: Smo trafficking assay in NIH 3T3 cells; conditions: Hh-responsive cells, ShhN stimulation
T1 construct: endogenous in cells; host or cells: NIH 3T3
T1 sequence (P56726 33-793): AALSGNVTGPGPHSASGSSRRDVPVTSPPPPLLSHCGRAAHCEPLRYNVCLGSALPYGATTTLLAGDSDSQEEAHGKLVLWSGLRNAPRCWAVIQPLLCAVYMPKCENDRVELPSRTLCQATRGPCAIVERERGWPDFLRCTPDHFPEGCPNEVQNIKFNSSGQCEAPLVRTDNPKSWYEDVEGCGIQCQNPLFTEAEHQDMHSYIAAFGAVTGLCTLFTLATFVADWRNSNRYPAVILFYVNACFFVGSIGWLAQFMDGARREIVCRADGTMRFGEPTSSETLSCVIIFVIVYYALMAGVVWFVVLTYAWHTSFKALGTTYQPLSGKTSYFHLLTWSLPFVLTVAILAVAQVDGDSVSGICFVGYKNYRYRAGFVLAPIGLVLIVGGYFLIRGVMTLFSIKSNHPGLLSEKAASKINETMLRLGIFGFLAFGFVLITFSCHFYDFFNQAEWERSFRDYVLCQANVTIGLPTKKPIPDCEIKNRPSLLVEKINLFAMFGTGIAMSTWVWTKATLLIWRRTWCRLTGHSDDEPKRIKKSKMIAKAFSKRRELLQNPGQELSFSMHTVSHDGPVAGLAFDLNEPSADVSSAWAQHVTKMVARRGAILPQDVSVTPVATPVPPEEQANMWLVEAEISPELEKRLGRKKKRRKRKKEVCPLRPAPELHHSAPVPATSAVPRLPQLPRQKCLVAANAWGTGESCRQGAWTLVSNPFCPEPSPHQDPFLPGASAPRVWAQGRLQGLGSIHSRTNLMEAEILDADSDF
Source text: The cells were imaged using a Plan Apochromat 63×/1.4-0.6 oil immersion objective on an upright Leica DM4500B compound microscope.

Compound: CCOc1ccc(-[n+]2cc(-c3ccc(Br)cc3)n3c2CCCCC3)cc1 [Compound A-1]
- Inhibition of Hh pathway activity ([1]; Shh-LIGHT2 cells stimulated with ShhN): inhibits Hh pathway activity
- IC50 ([1]; Shh-LIGHT2 w/ ShhN, read-out: IC50, firefly luciferase): 6.6 µM
- IC50 ([2]; Osteoblast, C3H10T(½) w/ ShhN): 5.2 ± 3.7 µM
- Differentiation of C3H10T1/2 cells into alkaline-phosphatase-expressing osteoblasts ([2]; ShhN-conditioned medium): blocked
- Hh reporter expression induced by exogenous Gli2 [3]: only partially inhibited
- Effect on Smo localization / trafficking [4]: did not affect Smo localization
